Data on 2 molecules can be found in PMC4643811, “Structural basis of Lewis^b antigen binding by the Helicobacter pylori adhesin BabA” (Science Advances, 2015).

The target in assay [1] is T1, BabA (extracellular domain, H. pylori J99) (Helicobacter pylori, UniProt Q9ZKV2).
T1 construct: N-terminal extracellular domain, amino acids 10-527 of mature BabA; three C-terminal tags (6xLys-c-Myc-6xHis) kept; periplasmic expression in E. coli XL10 Gold; beta-barrel membrane domain absent
The experiment in a line: isothermal titration calorimetry. It is filed as binding.

Assay [2] deals with BabA (extracellular domain, H. pylori J99) (Helicobacter pylori, UniProt Q9ZKV2, N226A). The conditions noted are these: pH 7.4, 25°C; protein 0.25 mM, glycan 10 mM.
Sequence of BabA (extracellular domain, H. pylori J99) (Helicobacter pylori, UniProt Q9ZKV2, N226A) (Q9ZKV2 30-547 N226A): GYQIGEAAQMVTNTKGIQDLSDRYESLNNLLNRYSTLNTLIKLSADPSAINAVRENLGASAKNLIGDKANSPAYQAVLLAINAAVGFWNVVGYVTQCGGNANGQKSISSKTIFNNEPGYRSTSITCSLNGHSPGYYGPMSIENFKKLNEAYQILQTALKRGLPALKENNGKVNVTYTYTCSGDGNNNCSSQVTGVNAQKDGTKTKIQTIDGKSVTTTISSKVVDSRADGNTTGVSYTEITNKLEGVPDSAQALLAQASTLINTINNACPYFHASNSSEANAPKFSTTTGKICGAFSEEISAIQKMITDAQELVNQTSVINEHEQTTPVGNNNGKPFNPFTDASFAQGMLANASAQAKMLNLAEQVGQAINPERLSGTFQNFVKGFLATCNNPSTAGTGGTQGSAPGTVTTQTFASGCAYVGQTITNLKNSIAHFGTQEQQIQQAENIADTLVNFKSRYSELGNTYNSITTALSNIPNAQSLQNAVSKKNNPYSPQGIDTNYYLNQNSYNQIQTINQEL

Like-named read-outs stand apart in the source and are kept apart here.

T1 sequence (Q9ZKV2 entry or part of it): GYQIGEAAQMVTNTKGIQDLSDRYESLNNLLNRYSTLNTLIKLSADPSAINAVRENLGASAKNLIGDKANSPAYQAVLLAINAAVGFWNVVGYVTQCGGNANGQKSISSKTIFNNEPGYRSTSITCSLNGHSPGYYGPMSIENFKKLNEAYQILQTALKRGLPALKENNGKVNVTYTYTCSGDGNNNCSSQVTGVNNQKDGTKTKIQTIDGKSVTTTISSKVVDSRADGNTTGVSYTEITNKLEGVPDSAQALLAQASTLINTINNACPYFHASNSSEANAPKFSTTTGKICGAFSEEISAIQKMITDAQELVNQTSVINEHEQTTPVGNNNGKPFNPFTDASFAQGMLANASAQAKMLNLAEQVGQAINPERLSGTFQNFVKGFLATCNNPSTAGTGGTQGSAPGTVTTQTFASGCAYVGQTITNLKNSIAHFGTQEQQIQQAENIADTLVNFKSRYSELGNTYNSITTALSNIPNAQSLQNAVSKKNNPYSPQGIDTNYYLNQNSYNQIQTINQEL

H-1 antigen: in assay [1] (pH 7.4, 25°C, protein 0.25 mM, glycan 10 mM, read-out: KD), the equilibrium dissociation constant (Kd) (commonly the equilibrium constant for the complex coming apart) was approximately 617 µM.
Consider `CC(=O)N[C@H]1[C@H](O[C@H]2[C@@H](O)[C@@H](CO)O[C@@H](O[C@H]3[C@H](O)[C@@H](O)C(O)O[C@@H]3CO)[C@@H]2O)O[C@H](CO)[C@@H](O[C@@H]2O[C@@H](C)[C@@H](O)[C@@H](O)[C@@H]2O)[C@@H]1O[C@@H]1O[C@H](CO)[C@H](O)[C@H](O)[C@H]1O[C@@H]1O[C@@H](C)[C@@H](O)[C@@H](O)[C@@H]1O` (stereo partly drawn) [Le^b], for which the Kd in assay [1] (pH 7.4, 20 mM tris-Cl, 300 mM NaCl, 25°C, single site) was approximately 252 µM; in assay [2], approximately 582 µM.
